Measurements from patent US20150105252A1, “SUBSTITUTED PYRAZOLES AS HERBICIDES” (E I DU PONT DE NEMOURS AND COMPANY, priority 2013, published 2015).

How the values were obtained:
wheat = experiment: Test A postemergence; type: in vivo, Triticum aestivum
Method in brief: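 After sowing in a sand–loam mix, pots received compound preemergence by directed soil spray, or postemergence once plants reached the one- to two-leaf stage (2–10 cm). Formulation contained surfactant in a non-phytotoxic solvent. Injury was scored visually after ~10 greenhouse days, 0–100 scale.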

barnyardgrass = experiment: Test B flood; type: in vivo, Echinochloa crus-galli; conditions: 250 g ai/ha, visual rating on 0 to 100 scale (0 no effect, 100 complete control), 13 to 15 days
Method in brief: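 Greenhouse assay lasting 13 to 15 days. Treatment was into water flooding pots 3 cm deep, at the 2-leaf stage, with that level sustained afterwards. Scores compare treated with control plants visually, 100 denoting complete control and 0 no effect; a dash marks no test result.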

crabgrass, large = experiment: Test C preemergence; type: in vivo, Digitaria sanguinalis; conditions: for Crabgrass, Large plant response rating: scale 0 to 100 (0 no effect, 100 complete control)
Method in brief: (§1)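 Visual control ratings on a 0–100 scale (100 = complete control) made against untreated controls after 13 to 15 days in greenhouse. Compounds applied in surfactant-containing solvent mixture, either preemergence to loam/sand-sown seeds or postemergence to 1- to 4-leaf plants (2–18 cm) in peat medium.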

foxtail, giant = experiment: Test C preemergence; type: in vivo, Setaria faberii; conditions: for Foxtail, Giant plant response rating: scale 0 to 100 (0 no effect, 100 complete control)
Method in brief: as §1

lambsquarters = experiment: Test C preemergence; type: in vivo, Chenopodium album; conditions: for Lambsquarters plant response rating: scale 0 to 100 (0 no effect, 100 complete control)
Method in brief: as §1

morningglory [1] = experiment: Test C preemergence; type: in vivo, Ipomoea coccinea; conditions: for Morningglory plant response rating: scale 0 to 100 (0 no effect, 100 complete control)
Method in brief: as §1

pigweed = experiment: Test C preemergence; type: in vivo, Amaranthus retroflexus; conditions: for Pigweed plant response rating: scale 0 to 100 (0 no effect, 100 complete control)
Method in brief: as §1

waterhemp [2] = experiment: Test C preemergence; type: in vivo, Amaranthus rudis; conditions: for Waterhemp plant response rating: scale 0 to 100 (0 no effect, 100 complete control)
Method in brief: as §1

velvetleaf = experiment: Test C preemergence; type: in vivo, Abutilon theophrasti; conditions: for Velvetleaf plant response rating: scale 0 to 100 (0 no effect, 100 complete control)
Method in brief: as §1

morningglory [3] = experiment: Test C postemergence; type: in vivo, Ipomoea coccinea
Method in brief: as §1

nutsedge, yellow = experiment: Test C postemergence; type: in vivo, Cyperus esculentus
Method in brief: as §1

oilseed rape = experiment: Test C postemergence; type: in vivo, Brassica napus
Method in brief: as §1

waterhemp [4] = experiment: Test C postemergence; type: in vivo, Amaranthus rudis
Method in brief: as §1

[5] = preemergence, 31 g ai/ha, visual rating, 13 to 15 days
[6] = preemergence, 62 g ai/ha, 13 to 15 days
[7] = preemergence, 125 g ai/ha, 13 to 15 days, scale 0 to 100, 0 = no effect, 100 = complete control
[8] = Postemergence, 31 g ai/ha, visually evaluated after 13 to 15 days
[9] = postemergence, 62 g ai/ha, scale 0 to 100
[10] = postemergence, 250 g ai/ha, scale 0 to 100 (0 no effect, 100 complete control)
[11] = postemergence, 125 g ai/ha, scale 0 to 100, 0 no effect, 100 complete control

## CCCc1cc(C(=O)NCC)nn1Cc1cc(C(F)(F)F)nn1C [Compound 129]
wheat; Postemergence, 500 g ai/ha, 0 to 100 scale (0 no effect, 100 complete control)
  Wheat plant response rating: 70
wheat; postemergence, 125 g ai/ha, about 10 days, visual rating on 0 to 100 scale (0 no effect, 100 complete control)
  Wheat plant response rating: 50
barnyardgrass
  Plant response rating, Barnyardgrass: 40
crabgrass, large; Preemergence, 250 g ai/ha
  Plant response rating (scale of 0 to 100), Crabgrass, Large: 100
crabgrass, large; [5]
  Crabgrass, Large plant response rating: 90
crabgrass, large; [6]
  Crabgrass, Large plant response rating: 100
crabgrass, large; [7]
  Plant response rating, Crabgrass, Large: 100
foxtail, giant; Preemergence, 250 g ai/ha
  Plant response rating (scale of 0 to 100), Foxtail, Giant: 100
foxtail, giant; [5]
  Foxtail, Giant plant response rating: 100
foxtail, giant; [6]
  Foxtail, Giant plant response rating: 100
foxtail, giant; [7]
  Plant response rating, Foxtail, Giant: 100
lambsquarters; Preemergence, 250 g ai/ha
  Plant response rating (scale of 0 to 100), Lambsquarters: 100
lambsquarters; [5]
  Lambsquarters plant response rating: 98
lambsquarters; [6]
  Lambsquarters plant response rating: 100
lambsquarters; [7]
  Plant response rating, Lambsquarters: 100
Morningglory [1]; Preemergence, 250 g ai/ha
  Plant response rating (scale of 0 to 100), Morningglory: 100
Morningglory [1]; [5]
  Morningglory plant response rating: 45
Morningglory [1]; [6]
  Morningglory plant response rating: 98
Morningglory [1]; [7]
  Plant response rating, Morningglory: 100
pigweed; Preemergence, 250 g ai/ha
  Plant response rating (scale of 0 to 100), Pigweed: 100
pigweed; [5]
  Pigweed plant response rating: 100
pigweed; [6]
  Pigweed plant response rating: 100
pigweed; [7]
  Plant response rating, Pigweed: 100
Waterhemp [2]; Preemergence, 250 g ai/ha
  Plant response rating (scale of 0 to 100), Waterhemp: 100
Waterhemp [2]; [5]
  Waterhemp plant response rating: 100
Waterhemp [2]; [6]
  Waterhemp plant response rating: 100
Waterhemp [2]; [7]
  Plant response rating, Waterhemp: 100
velvetleaf; Preemergence, 250 g ai/ha
  Plant response rating (scale of 0 to 100), Velvetleaf: 100
velvetleaf; [5]
  Velvetleaf plant response rating: 55
velvetleaf; [6]
  Velvetleaf plant response rating: 100
velvetleaf; [7]
  Plant response rating, Velvetleaf: 100
Morningglory [3]; [8]
  Plant response rating (scale of 0 to 100 where 0 is no effect and 100 is complete control), Morningglory: 80
Morningglory [3]; [9]
  Morningglory plant response rating: 100
Morningglory [3]; [10]
  Plant response rating, Morningglory: 100
Morningglory [3]; [11]
  Plant response rating, Morningglory: 100
nutsedge, yellow; [8]
  Plant response rating (scale of 0 to 100 where 0 is no effect and 100 is complete control), Nutsedge, Yellow: 0
nutsedge, yellow; [9]
  Nutsedge, Yellow plant response rating: 0
nutsedge, yellow; [10]
  Plant response rating, Nutsedge, Yellow: 5
nutsedge, yellow; [11]
  Plant response rating, Nutsedge, Yellow: 5
Oilseed rape; [8]
  Plant response rating (scale of 0 to 100 where 0 is no effect and 100 is complete control), Oilseed Rape: 60
Oilseed rape; [9]
  Oilseed Rape plant response rating: 60
Oilseed rape; [10]
  Plant response rating, Oilseed Rape: 70
Oilseed rape; [11]
  Plant response rating, Oilseed Rape: 65
Waterhemp [4]; [8]
  Plant response rating (scale of 0 to 100 where 0 is no effect and 100 is complete control), Waterhemp: 65
Waterhemp [4]; [9]
  Waterhemp plant response rating: 90
Waterhemp [4]; [10]
  Plant response rating, Waterhemp: 90
Waterhemp [4]; [11]
  Plant response rating, Waterhemp: 80
